This passage reports Activity and Cytotoxiciy results from ChEMBL document CHEMBL1123805, “Synthesis of certain nucleoside methylenediphosphonate sugars as potential inhibitors of glycosyltransferases” (J Med Chem, 1987).

Active and inactive are the calls of the source. No cut-off for these calls is given here.

The test system of experiment [1] is Vero. As to the kind of experiment: In vitro antiviral activity was evaluated against vero cell lines infected with adenovirus type 2; non toxic at concentrations as high as 50000 uM. The format is functional, cell-based. The conditions noted are these: Chlorocebus sabaeus.
The species named for experiment [2] is Mus musculus. In words: Glycosyltransferase inhibitory activity up to a concentration of 50 ug/mL; Without significant activity.
Experiment [3] has as its system L1210. In words: In vitro antitumor activity was evaluated against L1210 leukemia cell lines; None = no activity. The format is functional, cell-based. The note with it: Mus musculus.
Experiment [4] relates to WIL2. In words: In vitro antitumor activity was evaluated against human B-lymphoblastic leukemia cell lines; None = no activity. The class given is functional, cell-based.
The test system of experiment [5] is Vero. As to the kind of experiment: In vitro antiviral activity was evaluated against vero cell lines infected with visna virus; non toxic at concentrations as high as 50000 uM. The class given is functional, cell-based. The conditions noted are these: Chlorocebus sabaeus.
In experiment [6] the test system is Vero. In words: In vitro antiviral activity was evaluated against vero cell lines infected with influenza virus; non toxic at concentrations as high as 50000 uM. The format is functional, cell-based. The note with it: Chlorocebus sabaeus.
The subject of experiment [7] is Vero. As to the kind of experiment: In vitro antiviral activity was evaluated against vero cell lines infected with Parainfluenza virus type 3; non toxic at concentrations as high as 50000 uM. The format is functional, cell-based. The conditions noted are these: Chlorocebus sabaeus.
Experiment [8] relates to CCRF-CEM. In words: In vitro antitumor activity was evaluated against human T-lymphoblastic leukemia cell lines; None = no activity. The format is functional, cell-based.
In experiment [9] the test system is Vero. In words: In vitro antiviral activity was evaluated against vero cell lines infected with rhino virus; non toxic at concentrations as high as 50000 uM. The class given is functional, cell-based. The conditions noted are these: Chlorocebus sabaeus.
In experiment [10] the test system is Vero. As to the kind of experiment: In vitro antiviral activity was evaluated against vero cell lines infected with herpes simplex virus type-2; non toxic at concentrations as high as 50000 uM. The format is functional, cell-based. The note with it: Chlorocebus sabaeus.

On to `Nc1ncnc2c1ncn2C1O[C@H](COP(=O)(O)CP(=O)(O)OC2O[C@H](CO)[C@@H](O)[C@H](O)[C@H]2O)[C@@H](O)[C@H]1O` (stereo not given in full), for which the outcome in experiment [1], in [5], in [6], in experiment [7], in experiment [9] and in experiment [10] was inactive. Also, the Activity result in experiment [2] is given as “Without significant activity”. Also, the Cytotoxiciy result in experiment [3], in [4] and in experiment [8] was “None” in each case.
